Earlier results in US10449245B2 (priority 2014, dated 2019).

Tested on: HIV-specific T cells
Conditions: IMiD present during stimulation with dendritic cells presenting Gag- or Nef-specific peptides; cited from earlier work

Row | Structure (SMILES) | function of T-cells after in vitro stimulation
1 | Nc1cccc2c1CN(C1CCC(=O)NC1=O)C2=O (centres unmarked) [Lenalidomide] | a number of improvements in the function of the T-cells
2 | Nc1cccc2c1C(=O)N(C1CCC(=O)NC1=O)C2=O (centres unmarked) [pomalidomide] | a number of improvements in the function of the T-cells
